The text below walks through data of publication PMC12550276 (Life Science Alliance, 2025).

One assay deals with T1, GBAv (Amydetes, UniProt A0A3F2YLV6, R337L).
T1 construct: N-terminal His6-tag kept (no cleavage told), pET28b, E. coli BL21-CodonPlus-RIL; ~550 residues; monomer by SEC
Kind of assay: HDX-MS, apo vs ligand-bound. In kind it is binding. To be noted: 5 mM ATP together with 5 mM luciferin (not separable), 50 mM MgCl2, pD 7.5, 25°C.

A further assay concerns the target T2, REPh (Phrixothrix hirtus, UniProt Q9U4U7, L334R).
T2 construct: N-terminal His6-tag kept (no cleavage told), pET28b, E. coli BL21-CodonPlus-RIL; ~550 residues; higher oligomer by SEC (octamer in crystal)
T2 sequence (Q9U4U7 1-546 L334R): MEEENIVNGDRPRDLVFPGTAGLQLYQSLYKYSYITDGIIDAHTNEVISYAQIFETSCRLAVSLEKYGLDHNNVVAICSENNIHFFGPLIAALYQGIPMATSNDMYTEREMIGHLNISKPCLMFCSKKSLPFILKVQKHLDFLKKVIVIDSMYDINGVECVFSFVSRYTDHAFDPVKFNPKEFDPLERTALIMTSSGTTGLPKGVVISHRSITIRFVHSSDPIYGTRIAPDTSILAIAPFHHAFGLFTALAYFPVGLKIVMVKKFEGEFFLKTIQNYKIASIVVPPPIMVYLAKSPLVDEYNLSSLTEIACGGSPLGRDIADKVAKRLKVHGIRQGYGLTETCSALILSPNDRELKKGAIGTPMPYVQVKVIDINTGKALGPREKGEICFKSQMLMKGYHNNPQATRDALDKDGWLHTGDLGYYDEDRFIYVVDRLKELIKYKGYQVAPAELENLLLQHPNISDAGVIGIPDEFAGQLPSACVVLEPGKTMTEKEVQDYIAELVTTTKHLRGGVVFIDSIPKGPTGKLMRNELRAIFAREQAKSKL
Kind of assay: HDX-MS, apo vs ligand-bound. The format is binding. The note with it: 5 mM ATP together with 5 mM luciferin (not separable), 50 mM MgCl2, pD 7.5, 25°C.

T1 sequence (A0A3F2YLV6 entry or part of it R337L): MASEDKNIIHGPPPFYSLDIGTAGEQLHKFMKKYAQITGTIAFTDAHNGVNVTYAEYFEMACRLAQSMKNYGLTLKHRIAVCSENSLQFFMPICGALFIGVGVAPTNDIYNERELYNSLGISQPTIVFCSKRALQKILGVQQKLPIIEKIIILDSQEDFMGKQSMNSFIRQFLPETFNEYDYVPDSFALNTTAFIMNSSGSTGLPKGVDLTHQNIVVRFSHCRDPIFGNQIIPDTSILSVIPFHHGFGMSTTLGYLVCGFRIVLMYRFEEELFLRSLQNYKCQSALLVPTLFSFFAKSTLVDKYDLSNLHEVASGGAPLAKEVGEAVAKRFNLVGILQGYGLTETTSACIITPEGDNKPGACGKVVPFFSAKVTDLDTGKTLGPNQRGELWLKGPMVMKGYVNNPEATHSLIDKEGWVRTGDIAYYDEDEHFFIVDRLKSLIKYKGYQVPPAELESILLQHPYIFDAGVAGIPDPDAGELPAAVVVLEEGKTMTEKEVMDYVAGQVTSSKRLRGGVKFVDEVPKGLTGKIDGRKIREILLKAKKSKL

On to `Nc1ncnc2c1ncn2[C@@H]1O[C@H](COP(=O)(O)OP(=O)(O)OP(=O)(O)O)[C@@H](O)[C@H]1O` [ATP], for which the “HDX-MS, apo vs ligand-bound” value at GBAv was “Upon substrate binding, deuterium uptake by peptides-2 and -3 decreased in all variants”; at REPh, “Upon substrate binding, deuterium uptake by peptides-2 and -3 decreased in all variants”.
